# The source made the active and inactive calls. No cut-off for these calls is given here.
# Tests used:
# [1] = molecular target: T1, Amine oxidase [flavin-containing] A (Homo sapiens, UniProt P21397); assay: Inhibition of recombinant human MAO-A expressed in baculovirus infected BTI-TN-5B1-4 insect cells using p-tyramine as substrate preincubated for 15 mins followed by substrate addition and measured over 20 mins by horse-radish peroxidase/Amplex Red coupled fluorimetric analysis
# T1 sequence (P21397 whole entry): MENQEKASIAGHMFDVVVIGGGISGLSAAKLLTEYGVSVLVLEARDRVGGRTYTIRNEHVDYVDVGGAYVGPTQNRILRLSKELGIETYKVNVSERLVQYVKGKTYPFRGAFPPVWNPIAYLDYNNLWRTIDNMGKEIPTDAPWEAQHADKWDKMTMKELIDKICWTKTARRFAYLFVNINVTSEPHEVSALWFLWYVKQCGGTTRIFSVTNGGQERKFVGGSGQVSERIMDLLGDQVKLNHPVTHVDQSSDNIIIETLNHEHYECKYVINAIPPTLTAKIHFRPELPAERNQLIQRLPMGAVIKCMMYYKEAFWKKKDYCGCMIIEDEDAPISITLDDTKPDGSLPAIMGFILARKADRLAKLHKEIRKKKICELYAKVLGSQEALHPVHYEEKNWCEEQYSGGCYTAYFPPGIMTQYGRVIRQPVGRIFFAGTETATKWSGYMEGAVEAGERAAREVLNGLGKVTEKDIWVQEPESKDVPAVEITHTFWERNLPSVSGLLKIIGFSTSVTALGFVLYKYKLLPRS
# [2] = molecular target: T2, Amine oxidase [flavin-containing] B (Homo sapiens, UniProt P27338); assay: biochemical; assay type: cell-based, BTI-TN-5B1-4
# T2 sequence (P27338 whole entry): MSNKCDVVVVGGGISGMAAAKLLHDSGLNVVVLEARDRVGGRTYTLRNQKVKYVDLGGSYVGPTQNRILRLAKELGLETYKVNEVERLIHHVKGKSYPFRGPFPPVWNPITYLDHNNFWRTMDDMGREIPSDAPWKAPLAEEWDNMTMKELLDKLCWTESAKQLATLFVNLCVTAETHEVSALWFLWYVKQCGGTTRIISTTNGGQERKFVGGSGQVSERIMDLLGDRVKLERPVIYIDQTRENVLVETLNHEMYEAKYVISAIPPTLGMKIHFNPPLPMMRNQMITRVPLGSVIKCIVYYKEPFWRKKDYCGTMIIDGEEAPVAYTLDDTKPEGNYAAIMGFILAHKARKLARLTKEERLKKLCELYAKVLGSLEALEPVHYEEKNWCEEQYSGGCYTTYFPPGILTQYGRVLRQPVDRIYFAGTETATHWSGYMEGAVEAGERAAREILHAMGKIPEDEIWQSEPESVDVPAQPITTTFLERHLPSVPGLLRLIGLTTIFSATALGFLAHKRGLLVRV
# Description: Inhibition of recombinant human MAO-B expressed in baculovirus infected BTI-TN-5B1-4 insect cells using p-tyramine as substrate preincubated for 15 mins followed by substrate addition and measured over 20 mins by horse-radish peroxidase/Amplex Red coupled fluorimetric analysis
# SH-SY5Y [3] = assay: Cytotoxicity against human SH-SY5Y cells assessed as reduction in metabolic activity at 50 to 100 uM incubated for 24 hrs by MTS assay; assay type: ADME, cell-based; details: dose 50-100 µM
# [4] = molecular target: T2, Amine oxidase [flavin-containing] B; assay: Competitive inhibition of recombinant human MAO-B expressed in baculovirus infected BTI-TN-5B1-4 insect cells using varying level of p-tyramine as substrate by Lineweaver-Burk plot analysis
# [5] = Cytotoxicity against human SH-SY5Y cells assessed as metabolic activity up to 100 uM incubated for 24 hrs by MTS assay relative to control; assay type: ADME, cell-based; details: read-out: Activity
# SH-SY5Y [6] = assay: Cytotoxicity against human SH-SY5Y cells assessed as reduction in metabolic activity up to 20 uM incubated for 24 hrs by MTS assay; assay type: ADME, cell-based
# SH-SY5Y [7] = assay: Neuroprotective activity against 6-OHDA-induced cell death in human SH-SY5Y cells at 1 uM preincubated for 1 hr followed by 6-OHDA stimulation for 24 hrs by 7AAD staining based flow cytometric analysis; assay type: functional; details: time 25.0 hrs
Compound,IC50 [1] [µM],IC50 [2] [µM],Activity (SH-SY5Y [3]),Ki [4] [µM],viability at 24 h [5] [%],Activity (SH-SY5Y [6]),Activity (SH-SY5Y [7])
COc1ccc2c3c([nH]c2c1)C(C)=NCC3 [HARMALINE],0.0329,> 100,–,–,–,–,–
COc1ccccc1-c1cnc2c3cccnc3nn2c1,> 100,3.79,–,–,–,–,–
COc1ccc(-c2cnc3c4c(Cl)cccc4nn3c2)cc1,> 100,0.132,Toxic,–,–,–,–
c1ccc(-c2cnc3c4ncccc4nn3c2)cc1,> 100,88.3,–,–,–,–,–
COc1ccc(-c2cnc3c4nccnc4nn3c2)cc1,> 100,1.25,–,–,–,–,–
COc1ccc(-c2cnc3c4c(F)cccc4nn3c2)cc1,> 100,0.062,–,0.0337,> 85,–,–
Fc1ncccc1-c1cnc2c3ccccc3nn2c1,21.1,0.648,–,–,–,–,–
FC(F)(F)c1ccc2c(c1)nn1cc(Br)cnc21,> 100,1.17,–,–,–,–,–
O=[N+]([O-])c1ccc2nn3cc(Br)cnc3c2c1,> 100,> 100,–,–,–,–,–
c1cnc2c(c1)nn1cc(-c3ccsc3)cnc21,> 100,14.8,–,–,–,–,–
COc1cccc(-c2cnc3c4cccnc4nn3c2)c1,> 100,0.397,–,–,–,–,–
c1csc(-c2cnc3c4cccnc4nn3c2)c1,> 100,4.48,–,–,–,–,–
Fc1ccc(-c2cnc3c4cccnc4nn3c2)cn1,> 100,> 100,–,–,–,–,–
COc1ccc(-c2cnc3c4ncccc4nn3c2)cc1,> 100,0.236,Toxic,0.107,–,Non-Toxic,Active
Fc1cccc2nn3cc(Br)cnc3c12,> 100,> 100,–,–,–,–,–
COc1ccc(-c2cnc3c4cccnc4nn3c2)cc1,> 100,0.818,–,–,–,–,–

Compound,IC50 [1] [µM],IC50 [2] [µM],Activity (SH-SY5Y [3]),Ki [4] [µM],viability at 24 h [5] [%],Activity (SH-SY5Y [6]),Activity (SH-SY5Y [7])
CSc1ccc(-c2cnc3c4ccccc4nn3c2)cc1,> 100,0.065,–,0.0247,> 85,Non-Toxic,–
Brc1cnc2c3ccccc3nn2c1,> 100,> 100,–,–,–,–,–
CCOC(=O)c1ccccc1-c1cnc2c3nccnc3nn2c1,> 100,> 100,–,–,–,–,–
Brc1cnc2c3cccnc3nn2c1,> 100,> 100,–,–,–,–,–
C(=C\c1cnc2c3cccnc3nn2c1)/c1ccccc1,> 100,0.837,–,–,–,–,–
COc1ccc(-c2cnc3c4ccccc4nn3c2)cc1,> 100,0.215,Toxic,–,–,Non-Toxic,–
Brc1ccc2nn3cc(Br)cnc3c2c1,> 100,> 100,–,–,–,–,–
Brc1cnc2c3nccnc3nn2c1,> 100,> 100,–,–,–,–,–
CC(=O)c1ccc(-c2cnc3c4cccnc4nn3c2)cc1,> 100,0.13,–,0.0765,> 85,Non-Toxic,Active
CCOC(=O)c1ccc(-c2cnc3c4cccnc4nn3c2)cc1,> 100,0.822,–,–,–,–,–
Brc1ccc2c(c1)nn1cc(Br)cnc21,> 100,> 100,–,–,–,–,–
CS(=O)(=O)c1ccc(-c2cnc3c4cccnc4nn3c2)cc1,> 100,5.7,–,–,–,–,–
Brc1cnc2c3ncccc3nn2c1,> 100,> 100,–,–,–,–,–
Clc1cccc2nn3cc(Br)cnc3c12,> 100,> 100,–,–,–,–,–
FC(F)(F)c1cccc(-c2cnc3c4cccnc4nn3c2)c1,> 100,1.02,–,–,–,–,–
